Among the data in publication PMC12150210 (RSC Advances, 2025) are Kd values, retold here.

The target of the test is hCG (whole human chorionic gonadotropin) (Homo sapiens, UniProt P0DN86). The test can be described thus: microscale thermophoresis. The test is classed as binding. A general note: Microscale thermophoresis detects binding through changes in fluorescence in a small temperature gradient.

Regarding `CO[C@@]1(NC(=O)C2SC(=C(C(N)=O)C(=O)O)S2)C(=O)N2C(C(=O)O)=C(CSc3nnnn3C)CS[C@@H]21` (stereo partly drawn) [Cefotetan, (6R,7S)-7-[[4-(2-amino-1-carboxy-2-oxoethylidene)-1,3-dithietane-2-carbonyl]amino]-7-methoxy-3-[(1-methyltetrazol-5-yl)sulfanylmethyl]-8-oxo-5-thia-1-azabicyclo[4.2.0]oct-2-ene-2-carboxylic acid], the Kd – broadly, the concentration at which binding is half-saturated – came to 4.6 ± 3 µM.
